38 molecules from US9938262B2, “Benzamides” (Merck Patent GmbH, priority 2011, dated 2018) can be followed below.

SMILES strings stand for the structures. pEC50: −log10 of the molar value.

The first assay deals with T1, FSHR (Homo sapiens, UniProt P23945).
T1 construct: expressed in transfected cells; host or cells: CHO (Cho-FSHR-LUC-1-1-43)
T1 sequence (P23945 18-695): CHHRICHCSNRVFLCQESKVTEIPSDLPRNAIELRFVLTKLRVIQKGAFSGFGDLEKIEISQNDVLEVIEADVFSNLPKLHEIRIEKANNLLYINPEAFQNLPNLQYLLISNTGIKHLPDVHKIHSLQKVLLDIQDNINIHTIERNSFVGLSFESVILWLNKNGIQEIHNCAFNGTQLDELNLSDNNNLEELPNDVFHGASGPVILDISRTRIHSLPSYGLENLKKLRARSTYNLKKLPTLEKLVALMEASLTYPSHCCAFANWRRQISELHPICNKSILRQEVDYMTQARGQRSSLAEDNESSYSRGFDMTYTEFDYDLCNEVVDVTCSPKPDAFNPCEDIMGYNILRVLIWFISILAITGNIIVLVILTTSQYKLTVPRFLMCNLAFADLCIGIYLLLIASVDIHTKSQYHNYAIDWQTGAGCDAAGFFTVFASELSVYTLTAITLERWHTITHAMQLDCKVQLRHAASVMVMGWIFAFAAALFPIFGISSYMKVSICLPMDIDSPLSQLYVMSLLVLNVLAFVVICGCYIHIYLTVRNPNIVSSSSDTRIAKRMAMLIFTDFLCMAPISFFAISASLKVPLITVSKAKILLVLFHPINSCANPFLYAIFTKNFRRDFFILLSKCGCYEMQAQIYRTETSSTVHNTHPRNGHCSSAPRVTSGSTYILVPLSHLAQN
T1 sequence (P01215 25-116 partner): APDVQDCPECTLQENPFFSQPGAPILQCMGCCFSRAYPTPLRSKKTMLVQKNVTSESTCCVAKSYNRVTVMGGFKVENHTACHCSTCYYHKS
T1 sequence (P01225 19-129 partner): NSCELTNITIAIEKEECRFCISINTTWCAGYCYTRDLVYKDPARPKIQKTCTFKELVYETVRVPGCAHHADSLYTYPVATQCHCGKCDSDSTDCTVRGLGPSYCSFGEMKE
The experiment in a line: EC50 of cyclic AMP production in CHO FSHR cells + EC20 FSH (Assay A). Format: cell-based. Particulars: 1 h; 5 μM; effect relative to maximum response of the FSH standard; Table 1. The method, boiled down:
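cAMP HTRF ratio (665/620 nm) read after 1 h, 37 °C exposure of CHO-FSHR cells to compound in presence of EC20 FSH ([…]) and IBMX 200 μM. Responses given relative to FSH standard maximum; EC50 derived.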
Consider `COc1ccc(CNC(=O)c2ccc(N3CCN(c4ccccc4C)CC3)c(NC(=O)c3ccco3)c2)cc1` [Compound 122], for which the activation at 5 µM stood at 24%.
On the same count and under the same terms, the value for `Cc1ccccc1N1CCN(c2ccc(C(=O)NCCCN3CCCC3=O)cc2NC(=O)c2cccc3c2CCCC3)CC1` [Compound 112] was 21%; that for `Cc1ccccc1N1CCN(c2ccc(C(=O)NCCCN3CCCC3=O)cc2NC(=O)c2cnoc2C2CC2)CC1` [Compound 109] was 10%.

The same assay, now with this note: CHO FSHR cells + EC20 FSH; Table 1; read-out: Assay A EC50 of cyclic AMP production.
For the molecule `Cc1ccc(C(=O)Nc2cc(C(=O)NC3CC3)ccc2N2CCN(c3ccccc3C)CC2)o1` [Compound 195, 5-Methyl-furan-2-carboxylic acid [5-cyclopropylcarbamoyl-2-(4-o-tolyl-piperazin-1-yl)-phenyl]amide], the pEC50 (commonly the EC50 on a negative log10 scale, so that one unit is a factor of ten) was 5.00 to 6.00.
`Cc1ccccc1N1CCN(c2ccc(C(=O)NCCCn3cccc3)cc2NC(=O)c2ccco2)CC1` [Compound 148]: the pEC50 is 6.00 to 7.00.
Consider `Cc1ccccc1N1CCN(c2ccc(C(=O)NCCCc3cn[nH]c3)cc2NC(=O)c2coc(C3CC3)n2)CC1` [Compound 232], for which the pEC50 was 6.00 to 7.00.
For the molecule `Cc1ccccc1N1CCN(c2ccc(C(=O)NCCCN3CCCC3=O)cc2NC(=O)CC2CC2)CC1` [Compound 219, 3-(2-Cyclopropyl-acetylamino)-N-[3-(2-oxo-pyrrolidin-1-yl)-propyl]-4-(4-o-tolyl-piperazin-1-yl)-benzamide], the negative-log EC50 (pEC50) was 5.00 to 6.00.
Still for that read-out and setting: the value for `Cc1ccccc1N1CCN(c2ccc(C(=O)NCCCn3ccnc3)cc2NC(=O)c2ccco2)CC1` [Compound 116] was 6.00 to 7.00; that for `Cc1ccccc1N1CCN(c2ccc(C(=O)NCc3cccc(-c4nnn[nH]4)c3)cc2NC(=O)c2ccco2)CC1` [Compound 248] was greater than 7.00; that for `Cc1ccccc1N1CCN(c2ccc(C(=O)NCc3ccc(Cl)cc3)cc2NC(=O)c2ccco2)CC1` [Compound 131, Furan-2-carboxylic acid [5-(4-chloro-benzylcarbamoyl)-2-(4-o-tolyl-piperazin-1-yl)-phenyl]-amide] was 6.00 to 7.00.
The same measure, in the same setting: the value for `Cc1ccc(C(=O)Nc2cc(C(=O)NCCc3c[nH]cn3)ccc2N2CCN(c3ccccc3C)CC2)o1` [Compound 185, 5-Methyl-furan-2-carboxylic acid [5-[2-(1H-imidazol-4-yl)-ethylcarbamoyl]-2-(4-o-tolyl-piperazin-1-yl)-phenyl]-amide] was 5.00 to 6.00; that for `Cc1ccccc1N1CCN(c2ccc(C(=O)NCCCN3CCCC3=O)cc2NC(=O)c2csc(C(C)C)c2)CC1` [Compound 213] was less than 5.00; that for `Cc1ccc(C(=O)Nc2cc(C(=O)NCCCN3CCCC3=O)ccc2N2CCCN(c3ccccc3C)CC2)o1` [Compound 194, 5-Methyl-furan-2-carboxylic acid [5-[3-(2-oxo-pyrrolidin-1-yl)-propylcarbamoyl]-2-(4-o-tolyl-[1,4]diazepan-1-yl)-phenyl]-amide] was 5.00 to 6.00.
On to `Cc1ccc(C(=O)Nc2cc(C(=O)NC3CCN(C(=O)OC(C)(C)C)CC3)ccc2N2CCN(c3ccccc3C)CC2)o1` [Compound 175, 4-[3-[(5-methyl-furan-2-carbonyl)-amino]-4-(4-o-tolyl-piperazin-1-yl)-benzoylamino]-piperidine-1-carboxylic acid tert-butyl ester], for which the pEC50 was 5.00 to 6.00.

The assay is the same for the next values; noted with them: CHO FSHR cells + EC20 FSH; Table 2; read-out: Assay A EC50 of cyclic AMP production.
Turning to `COCc1cccc(CNC(=O)c2ccc(N3CCN(c4ccccc4C)CC3)c(NC(=O)c3ccco3)c2)c1` [Compound 484], the pEC50 is 6.00 to 7.00.
Still for that read-out and setting: the value for `Cc1ccccc1N1CCN(c2ccc(C(=O)NCCCN3CCCC3=O)cc2NCc2cccc3cccnc23)CC1` [Compound 429] was 6.00 to 7.00; that for `Cc1ccc(C(=O)Nc2cc(C(=O)NCCCN3CCCC3=O)ccc2N2CCN(c3cccc(C)c3C)CC2)o1` [Compound 521] was 6.00 to 7.00.
Consider `Cc1ccccc1N1CCN(c2ccc(C(=O)NCCCN3C(=O)CN(C)C3=O)cc2NC(=O)c2coc(C3CC3)n2)CC1` [Compound 296], for which the pEC50 is 6.00 to 7.00.
On the same count and under the same terms, the value for `Cc1ccccc1N1CCN(c2ccc(C(=O)NCCCNC(=O)Nc3ccc(C(F)(F)F)cc3)cc2NC(=O)c2coc(C3CC3)n2)CC1` [Compound 428] was less than 5.00; that for `CCN(CC)Cc1cccc(CNC(=O)c2ccc(N3CCN(c4ccccc4C)CC3)c(NC(=O)c3coc(C4CC4)n3)c2)c1` [Compound 536] was 6.00 to 7.00; that for `Cc1ccccc1N1CCN(c2ccc(C(=O)NCc3ccc(F)c(CN(C)C)c3)cc2NC(=O)c2coc(C3CC3)n2)CC1` [Compound 564] was 6.00 to 7.00.
Turning to `Cc1ccccc1N1CCN(c2ccc(C(=O)NCc3cccc(CN)c3)cc2NC(=O)c2ccco2)CC1` [Compound 327], the pEC50 was 6.00 to 7.00.
Still for that read-out and setting: the value for `CCc1ccccc1N1CCN(c2ccc(C(=O)NCCCN3CCCC3=O)cc2NC(=O)c2coc(C3CC3)n2)CC1` [Compound 516] was 6.00 to 7.00; that for `Cc1ccccc1N1CCN(c2ccc(C(=O)N[C@@H]3CCCC[C@@H](O)[C@H]3O)cc2NC(=O)c2coc(C3CC3)n2)CC1` [Compound 479] was 6.00 to 7.00; that for `CC(=O)NC1(c2ccccc2)CCN(c2ccc(C(=O)NCCCN3CCCC3=O)cc2NC(=O)c2coc(C3CC3)n2)CC1` [Compound 400] was less than 5.00.
As to `Cc1ccccc1N1CCN(c2ccc(C(=O)NCCNC3CCS(=O)(=O)C3)cc2NC(=O)c2ccco2)CC1` (centres unmarked) [Compound 387], the negative logarithm of the EC50 (pEC50) is 6.00 to 7.00.
Still for that read-out and setting: the value for `CC(C)(C)OC(=O)NC1CCN(c2ccc(C(=O)NCCCN3CCCC3=O)cc2NC(=O)c2coc(C3CC3)n2)CC1` [Compound 273] was 5.00 to 6.00; that for `Cc1ccccc1N1CCN(c2ccc(C(=O)NCCCN3CCCC3=O)cc2NC(=O)c2coc(C3CC3)n2)CC1` [Compound 436] was 6.00 to 7.00; that for `Cc1ccccc1N1CCN(c2ccc(C(=O)NCCCN3CCCC3=O)cc2NC(=O)c2cnc(C3CC3)o2)CC1` [Compound 386] was 6.00 to 7.00.
`Cc1ccccc1N1CCN(c2ccc(C(=O)NCCCc3cccc(O)c3)cc2NC(=O)c2ccco2)CC1` [Compound 589]: the pEC50 was 6.00 to 7.00.
For `CN(C)c1ccc(N2CCN(c3ccc(C(=O)NCCCN4CCCC4=O)cc3NC(=O)c3coc(C4CC4)n3)CC2)nn1` [Compound 602], the pEC50 was 6.00 to 7.00.
`Cc1ccccc1N1CCN(c2ccc(C(=O)NCCCN3C(=O)CCC3C)cc2NC(=O)c2coc(C3CC3)n2)CC1` (centres unmarked) [Compound 330]: the negative-log EC50 (pEC50) is 6.00 to 7.00.
Consider `CCN(C)Cc1cccc(CNC(=O)c2ccc(N3CCN(c4ccccc4C)CC3)c(NC(=O)c3ccco3)c2)c1` [Compound 478], for which the pEC50 was greater than 7.00.
The same measure, in the same setting: the value for `Cc1ccccc1N1CCN(c2ccc(C(=O)NC[C@H](O)c3ccccc3)cc2NC(=O)c2ccco2)CC1` [Compound 585] was greater than 7.00; that for `CCOc1cc(CCCNC(=O)c2ccc(N3CCN(c4ccccc4C)CC3)c(NC(=O)c3ccco3)c2)ccc1OC` [Compound 579] was 6.00 to 7.00; that for `Cc1ccccc1N(C)C1CCN(c2ccc(C(=O)NCCCN3CCCC3=O)cc2NC(=O)c2coc(C3CC3)n2)CC1` [Compound 405] was 6.00 to 7.00.
With `Cc1ccccc1N1CCN(c2ccc(C(=O)NCCCN3CCC(F)(F)C3)cc2NC(=O)c2coc(C3CC3)n2)CC1` [Compound 362], the pEC50 is 6.00 to 7.00.
With `Cc1ccccc1N1CCN(c2ccc(C(=O)NCCNC3CS(=O)(=O)C[C@H]3O)cc2NC(=O)c2ccco2)CC1` (some centres unmarked) [Compound 606], the pEC50 is 6.00 to 7.00.
